Values quoted from earlier work in patent publication US20210307362A1, “Supplement for animal feed for sucking pigs” (Proviron Holding N.V., priority 2018, published 2021).

Question: With `CCCC(=O)OCC(COC(=O)CCC)OC(=O)CCC` [Glycerol tri butyrate] as the molecule, how does the solubility in water read?
Answer: insoluble in water
